Measurements reported in patent publication US4863713A, “Method and system for administering therapeutic and diagnostic agents” (priority 1986, dated 1989).

Molecular target: avidin (Gallus gallus, UniProt P02701)
Assay: Binding of biotinylated chelate to avidin
Source text: To illustrate a derivatization reaction used in preparing a epitopic compound, the above bifunctional chelates can be coupled to a biotin moiety, to produce of epitopic biotin chelate capable of specific, high-affinity binding to avidin. In one coupling method, a bifunctional chelate having a free-end amine is reacted with an N-hydroxysuccinamide (NHS) ester of biotin, to link the biotin to the chelate amine through an amide linkage. The chelate amine may be formed from BABE-EDTA, for example, by amination in concentrated aqueous ammonium, and the NHS biotin ester is commercially available. […] Other active agents can be biotinylated or derivatized with carbohydrate or haptenic molecules in a similar manner.

avidin, sequence (P02701 25-152): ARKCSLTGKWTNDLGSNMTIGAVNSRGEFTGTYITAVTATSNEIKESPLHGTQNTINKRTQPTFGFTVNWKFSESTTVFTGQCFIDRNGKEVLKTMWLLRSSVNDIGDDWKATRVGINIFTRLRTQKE

O=C(O)CN(CC(=O)O)CC(Cc1ccc(NC(=O)CNC(=O)CCCC[C@@H]2SC[C@@H]3NC(=O)N[C@@H]32)cc1)N(CC(=O)O)CC(=O)O (stereo partly shown) [biotinylated glycineamidobenzyl EDTA]
binding to avidin (in words): bind with high affinity to avidin
